Measurements from PubChem BioAssay (NCI).
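Exposure lasted 48 hours, with cells grown in 96-well plates and compounds tested at five concentrations. At the TGI there is no net growth.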

Tests used:
Assay in all cases: NCI-60 cell line screen, 48 h
RPMI-8226 leukemia = tested on: RPMI-8226 leukemia
UACC-257 melanoma = tested on: UACC-257 melanoma
M14 melanoma = tested on: M14 melanoma
DU-145 prostate = tested on: DU-145 prostate
MDA-N = tested on: MDA-N
HT29 colon = tested on: HT29 colon
CAKI-1 renal = tested on: CAKI-1 renal
UACC-62 melanoma = tested on: UACC-62 melanoma
SN12C renal = tested on: SN12C renal
BT-549 breast = tested on: BT-549 breast
NCI-H23 lung = tested on: NCI-H23 lung
K-562 leukemia = tested on: K-562 leukemia
TK-10 renal = tested on: TK-10 renal
NCI-H226 lung = tested on: NCI-H226 lung
SF-268 CNS = tested on: SF-268 CNS
SNB-75 CNS = tested on: SNB-75 CNS
MDA-MB-435 = tested on: MDA-MB-435
HOP-62 NSCLC = tested on: HOP-62 NSCLC
SK-MEL-2 melanoma = tested on: SK-MEL-2 melanoma
MALME-3M melanoma = tested on: MALME-3M melanoma
SK-MEL-5 melanoma = tested on: SK-MEL-5 melanoma
ACHN renal = tested on: ACHN renal
SK-OV-3 ovarian = tested on: SK-OV-3 ovarian
MOLT-4 leukemia = tested on: MOLT-4 leukemia
T-47D breast = tested on: T-47D breast
NCI-H460 lung = tested on: NCI-H460 lung
HL-60(TB) leukemia = tested on: HL-60(TB) leukemia
OVCAR-4 ovarian = tested on: OVCAR-4 ovarian
SK-MEL-28 melanoma = tested on: SK-MEL-28 melanoma
PC-3 prostate = tested on: PC-3 prostate
UO-31 renal = tested on: UO-31 renal
EKVX NSCLC = tested on: EKVX NSCLC
MCF7 breast = tested on: MCF7 breast
HOP-92 NSCLC = tested on: HOP-92 NSCLC
HCC-2998 colon = tested on: HCC-2998 colon
CCRF-CEM leukemia = tested on: CCRF-CEM leukemia
OVCAR-5 ovarian = tested on: OVCAR-5 ovarian
NCI-H522 lung = tested on: NCI-H522 lung
HS 578T breast = tested on: HS 578T breast
U251 CNS = tested on: U251 CNS
SNB-19 CNS = tested on: SNB-19 CNS
NCI/ADR-RES ovarian = tested on: NCI/ADR-RES ovarian
OVCAR-8 ovarian = tested on: OVCAR-8 ovarian
COLO 205 colon = tested on: COLO 205 colon
KM12 colon = tested on: KM12 colon
RXF 393 renal = tested on: RXF 393 renal
IGROV1 ovarian = tested on: IGROV1 ovarian
MDA-MB-231 breast = tested on: MDA-MB-231 breast
HCT-15 colon = tested on: HCT-15 colon
OVCAR-3 ovarian = tested on: OVCAR-3 ovarian
SW-620 colon = tested on: SW-620 colon
SF-295 CNS = tested on: SF-295 CNS
A498 renal = tested on: A498 renal
SF-539 CNS = tested on: SF-539 CNS
786-0 renal = tested on: 786-0 renal
LOX IMVI melanoma = tested on: LOX IMVI melanoma
A549 NSCLC = tested on: A549 NSCLC
HCT-116 colon = tested on: HCT-116 colon
SR leukemia = tested on: SR leukemia

Measured: TGI

Cc1nc2ccc(S(=O)(=O)Nc3nccs3)cc2c(=O)n1NS(=O)(=O)c1nccs1
not listed: 786-0 renal | LOX IMVI melanoma | A549 NSCLC | HCT-116 colon | SR leukemia
> 100 µM: all other assays above

CC(=O)NC1C(Sc2ncn(C3OC(CO)C(O)C(O)C3NC(C)=O)n2)OC(CO)C(O)C1O (centres undefined)
not listed: K-562 leukemia | NCI-H226 lung | SNB-75 CNS | UO-31 renal | SR leukemia
> 100 µM: all other assays above

O=c1cc(CF)[nH]c(=S)[nH]1
not listed: RPMI-8226 leukemia | SK-MEL-2 melanoma | SK-OV-3 ovarian | HL-60(TB) leukemia | MCF7 breast | COLO 205 colon | SF-539 CNS
> 100 µM: all other assays above

COC(=O)C(=O)CC(=O)c1cccc(OC)c1
not listed: SK-MEL-2 melanoma | HOP-92 NSCLC | NCI-H522 lung | IGROV1 ovarian | SR leukemia
> 100 µM: all other assays above
